For one data set, the system named is H1299 cells. Kind of data set: MTT cell proliferation assay, H1299. The data set is classed as cell-based, human. As to conditions: Homo sapiens, NCI-H1299, 48 h; for inhibition at 10 µM: read-out: H1299 cells inhibition rate. On the procedure: (§1) Beas-2b, A431, A549 and H1299 cells were cultured in 96-well plates (5 × 10^3 cells/well) for 16 h, respectively. Subsequently, positive compound 4i and 25 newly synthesized compounds were added at a final concentration of 10 μM or gradient concentrations (0.01, 0.1, 0.5, 1, 5 and 10 μM), co-incubated with the cells for 48 h. MTT (M8180, Solarbio) solutions (5 mg/mL) were then added and incubated for 4 h in the dark. Then, formazan crystals were dissolved with DMSO (D8371, Solarbio), followed by shaking on a shaker (DRAGONLAB, China) for 10 min. Finally, absorbance at 490 nm wavelength for each well was measured with Microplate reader (Molecular Devices, United States) ([Tang et al., 2020]; [Lee et al., 2021]). The results are expressed as mean ± SD from three independent experiments. Cells inhibition rates or IC50 values were calculated using GraphPad Prism 9.5.0.
(Tetrazolium dyes change colour on reduction, which living cells bring about.)

The subject of a further data set is TNF-α. Kind of data set: ELISA of TNF-α in LPS-stimulated RAW264.7 cells. It is filed as cell-based, mouse. The conditions noted are these: 10 μM, RAW264.7, LPS, 24 h, vs blank control. On the procedure:
(§2) RAW264.7 cells were cultured in 6-well plates (2×10^5 cells/well) for 24 h and treated with 25 newly synthesized compounds (final concentration at 10 μM) for 30 min, respectively. Subsequently, the cells were stimulated with 1 μL of LPS (500 ng/mL) (L8880, Solarbio). After 24 h, the supernatant was collected and analyzed using an ELISA kit (EK206 and EK182, MULTISCIENCES) to quantify the levels of inflammatory cytokines IL-6 and TNF-α ([Li et al., 2021]).
A general note: In an ELISA, binding on a coated surface is turned into a signal by an enzyme label.

Data set [1] is described as follows: Oil-water partition coefficient (log P) measurement. The data set is classed as physicochemical. The conditions noted are these: n-octanol/water, room temperature. The method, then: The partition coefficient between n-octanol and water (log Po/w) is the classical descriptor for Lipophilicity ([Daina et al., 2017]). The test methodology followed previously published protocols ([Wang et al., 2021]). At room temperature, two large Erlenmeyer flasks were taken and filled with n-octanol and water, respectively. The flasks were placed in a constant temperature shaker at 150 rpm for 24 h to saturate the solvents. The mixtures were then transferred to separating funnels under normal pressure to obtain water-saturated n-octanol and n-octanol-saturated water for subsequent use. The target compound (2 mg) was accurately weighed and placed in a 2 mL brown volumetric flask. Anhydrous methanol was added to ultrasonically dissolve the compound, and the mixture was diluted to volume and thoroughly shaken to prepare a 1 mg/mL stock solution. The stock solution was further diluted to obtain 1, 1.5, 2, 2.5, 5 and 10 μg/mL reference solutions for construction of a standard curve using a UV-visible spectrophotometer. An excess amount of the analyte was dissolved in water-saturated n-octanol, and the mixture was shaken at 150 rpm for 24 h at constant temperature to obtain a saturated solution. The saturated solution was allowed to stand, centrifuged, and 1 mL of the supernatant was transferred to a 4 mL centrifuge tube. N-octanol saturated water (1 mL) was added, and the mixture was shaken at 150 rpm for 24 h at constant temperature. After standing for 8 h, the mixture was centrifuged. Appropriate amounts of the n-octanol phase before and after equilibration were diluted with methanol, and concentrations were determined from the standard curve to obtain C0 and C1. The concentration in the n-octanol saturated aqueous phase, Cw, was calculated as Cw = C0 - C1. Thus, log Po/w = […].

Data set [2] has as its system A431 cells. Description: MTT cell proliferation assay, A431. It is filed as cell-based, human. As to conditions: Homo sapiens, A-431, 48 h; for inhibition at 10 µM: read-out: A431 cells inhibition rate. The method, then: as §1
For another data set, the system named is IL-6. Kind of data set: ELISA of IL-6 in LPS-stimulated RAW264.7 cells. The data set is classed as cell-based, mouse. The conditions noted are these: 10 μM, RAW264.7, LPS, 24 h, vs blank control. The method, then:
as §2

In another data set the test system is Beas-2b cells. Kind of data set: MTT cell proliferation and toxicity assay, Beas-2b. The conditions noted are these: Homo sapiens, BEAS-2B, 48 h, read-out: Beas-2b cells inhibition rate. The data set is classed as cell-based, human. The method, then:
as §1

For data set [3], the system named is A549 cells. Kind of data set: MTT cell proliferation assay, A549. The data set is classed as cell-based, human. As to conditions: Homo sapiens, A549, 48 h; for inhibition at 10 µM: read-out: A549 cells inhibition rate. On the procedure:
as §1

In the next data set the test system is human cancer cell lines. The arrangement: method as in Mortimer et al., 2006. The conditions noted are these: particularly non-small cell lung, colon and breast cancer lines; ref Mortimer et al., 2006; cited from earlier work.
Data set [4] relates to A431 cells. Kind of data set: Flow cytometry analysis of cell cycle, A431. The conditions noted are these: A431, 24 h. It is filed as cell-based, human. On the procedure:
(§3) The A431 and A549 cells were cultured in 6-well plates (1×10^5 cells/mL) for 16 h. Subsequently, they were treated with different concentrations (1, 2 and 4 μM) of either B7 or 4i (4 μM) for 24 h. Cells were collected, mixed by adding 75% ethanol with shaking on a vortex shaker, and placed in the refrigerator at 4°C for overnight fixation. The cells were incubated with PI-Raze solution for 15 min at room temperature, protected from light, according to the instructions of BD Cycletest Plus DNA Reagent Kit (340242, BD), and detected by FACS Calibur flow cytometry ([Oh et al., 2023]), and subsequent data analysis was performed using FlowJo 10.6.2.
For orientation: In flow cytometry, cells or beads pass a laser one at a time.

The subject of data set [5] is A549 cells. Kind of data set: Flow cytometry analysis of cell cycle, A549. It is filed as cell-based, human. The conditions noted are these: A549, 24 h. The method, then:
as §3

The test system of data set [6] is non-small cell lung cancer cell line HOP-92. The arrangement: method as in Noolvi et al., 2012. As to conditions: ref Noolvi et al., 2012; cited from earlier work.

We go through eight compounds from PMC10982501, “Synthesis and biological evaluation of novel benzothiazole derivatives as potential anticancer and antiinflammatory agents” (Frontiers in Chemistry, 2024).

As a reminder, the inhibition is the change of the read-out against control, counted positive when it falls. The logP is the decadic logarithm of the partition coefficient of the neutral form, usually between octanol and water. A high value points to a more lipophilic compound. With `CCOC(=O)COc1ccccc1-c1nc2ccccc2s1` [A1, Ethyl 2-(2-(benzo[d]thiazol-2-yl)phenoxy)acetate], the inhibition at 10 µM in the data set on H1299 cells came to 49.5 ± 0.84%; in the data set with A431 cells [2], 45.6 ± 1.21%; in the data set with Beas-2b cells it was 10.2 ± 0.92%; in the data set on A549 cells [3] it was 42.3 ± 1.15%. The “effect on TNF-α expression” value in the data set on TNF-α is recorded as “significant inhibitory effects”. Also, the logP in data set [1] was 2.35 ± 0.21. In addition, the “effect on IL-6 expression” value with IL-6 was “significant inhibitory effects”.

Consider `Clc1ccc2nc(N(Cc3ccccc3)Cc3ccccc3)sc2c1` [D2, N,N-dibenzyl-6-chlorobenzo[d]thiazol-2-amine], for which the inhibition at 10 µM was determined as 46.9 ± 2.71% with H1299 cells, 43.6 ± 1.39% with A431 cells [2], 24.3 ± 3.1% with Beas-2b cells and 40.3 ± 1.06% in the data set with A549 cells [3]. For the same compound, the “effect on TNF-α expression” value with TNF-α is given as “significant inhibitory effects”. In addition, in data set [1], the log partition coefficient (logP) is 5.82 ± 0.22. Moreover, the “effect on IL-6 expression” value in the data set with IL-6 is “significant inhibitory effects”.

Regarding `COc1ccc(-c2nc3cc(F)ccc3s2)cc1OC` [PMX610, 2-(3,4-dimethoxyphenyl)-5-fluorobenzothiazole], the “in vitro anti-tumor properties in human cancer cell lines, in words” value with human cancer cell lines is “potent and selective in vitro anti-tumor properties”.

A word on the IC50: it is the concentration that gives 50% inhibition. Regarding `Clc1cccc(Cl)c1Nc1nc2cccc(Cl)c2s1` [4i, 7-chloro-N-(2,6-dichlorophenyl) benzo[d] thiazole-2-amine, reference compound], the “cell cycle arrest, in words” value in the data set with A431 cells [4] and in the data set on A549 cells [5] was “G2 phase cell cycle arrest effect” in each case. In addition, the IC50 with H1299 cells (read-out: IC50 (mean ± SD) H1299) stood at 2480 ± 530 nM; in the data set with A431 cells [2] (read-out: IC50 (mean ± SD) A431) it was 2000 ± 410 nM; in the data set on A549 cells [3] (read-out: IC50 (mean ± SD) A549) it was 1090 ± 320 nM. Moreover, in [6], the “anticancer activity against HOP-92, in words” value is “promising anticancer activity”.

With `COc1cc(CN(Cc2cc(OC)cc(OC)c2)c2nc3ccc(Cl)cc3s2)cc(OC)c1` [D1, 6-chloro-N,N-bis(3,5-dimethoxybenzyl)benzo[d]thiazol-2-amine], the inhibition at 10 µM in the data set with H1299 cells worked out at 32.7 ± 1.25%; in the data set on A431 cells [2], 38.7 ± 1.56%; in the data set on Beas-2b cells it was 19.3 ± 1.31%; with A549 cells [3], 15.4 ± 3.46%. The same compound had a logP in data set [1] of 5.69 ± 0.25.

As to `c1ccc(COc2ccccc2-c2nc3ccccc3s2)cc1` [A7, 2-(2-(benzyloxy)phenyl)benzo[d]thiazole], the inhibition at 10 µM in the data set with H1299 cells is 26.5 ± 1.11%; in the data set with A431 cells [2], 15.3 ± 2.21%; with Beas-2b cells, 11.4 ± 2.65%; in the data set on A549 cells [3] it was 12.2 ± 3.42%. This compound had a logP in [1] of 3.95 ± 0.15.

Regarding `O=C1c2ccccc2C(=O)N1CCCOc1ccccc1-c1nc2ccccc2s1` [A3, 2-(3-(2-(benzo[d]thiazol-2-yl)phenoxy)propyl)isoindoline-1,3-dione], the inhibition at 10 µM is 30.9 ± 0.77% in the data set with H1299 cells, 34.2 ± 1.15% in the data set on A431 cells [2], 5.25 ± 0.39% in the data set with Beas-2b cells and 28.5 ± 2.21% with A549 cells [3]. The logP in data set [1] turned out to be 3.63 ± 0.16.

In the case of `Fc1ccc2nc(NCc3c(Cl)cccc3Cl)sc2c1` [B2, N-(2,6-dichlorobenzyl)-6-fluorobenzo[d]thiazol-2-amine], the inhibition at 10 µM with H1299 cells came out at 31.3 ± 1.14%; in the data set on A431 cells [2], 27.5 ± 2.42%; in the data set with Beas-2b cells, 18.6 ± 1.67%; in the data set on A549 cells [3], 30.2 ± 2.13%. In [1], this compound showed a logP of 4.25 ± 0.16.
